Data as given in ChEMBL document CHEMBL4020828, “Design and Syntheses of Highly Potent Teixobactin Analogues against Staphylococcus aureus, Methicillin-Resistant Staphylococcus aureus (MRSA), and Vancomycin-Resistant Enterococci (VRE) in Vitro and in Vivo” (J Med Chem, 2018).
Converted amounts (≈) assume the structure as drawn. Positions of bridges follow the written chain, without caps; N, C: chain ends. Non-standard residues stand in square brackets, D forms with d. Residues, ends and D or L forms follow the SMILES beside them. dNMeF = CN[C@H](Cc1ccccc1)C(=O)O

Experiments:
Bacillus cereus = assay: Antibacterial activity against Bacillus cereus ATCC 11788 after 24 hrs; assay type: functional; details: ATCC 11788, 24 h
Enterococcus faecalis [1] = assay: Antibacterial activity against vancomycin-resistant Enterococcus faecalis isolate 1008 after 24 hrs; assay type: functional; details: isolate 1008, 24 h
Staphylococcus aureus [2] = assay: Antibacterial activity against Staphylococcus aureus ATCC 29213 after 24 hrs; assay type: functional; details: ATCC 29213, 24 h
[3] = tested on: Bacillus subtilis (Bacillus subtilis); assay: Antibacterial activity against Bacillus subtilis ATCC 6633 after 24 hrs; details: ATCC 6633, 24 h
Staphylococcus aureus [4] = assay: Antibacterial activity against Staphylococcus aureus 4299 after 24 hrs; assay type: functional; details: Staphylococcus aureus, 4299, 24 h
[5] = tested on: Staphylococcus saprophyticus; assay: Antibacterial activity against Staphylococcus saprophyticus ATCC BAA 750 after 24 hrs; assay type: functional; details: ATCC BAA 750, 24 h
Staphylococcus aureus [6] = assay: Antibacterial activity against methicillin-resistant Staphylococcus aureus isolate 42412 after 24 hrs; assay type: functional; details: isolate 42412, 24 h
Staphylococcus aureus [7] = assay: Antibacterial activity against methicillin-resistant Staphylococcus aureus isolate 21455 after 24 hrs; assay type: functional; details: isolate 21455, 24 h
Enterococcus faecalis [8] = assay: Antibacterial activity against vancomycin-resistant Enterococcus faecalis isolate 1004 after 24 hrs; assay type: functional; details: isolate 1004, 24 h
Enterococcus faecalis [9] = assay: Antibacterial activity against vancomycin-resistant Enterococcus faecalis ATCC 29212 after 24 hrs; assay type: functional; details: ATCC 29212, 24 h
[10] = tested on: Staphylococcus epidermidis; assay: Antibacterial activity against Staphylococcus epidermidis 12228 after 24 hrs; assay type: functional; details: Staphylococcus epidermidis, 12228, 24 h
[11] = tested on: Staphylococcus saprophyticus; assay: Antibacterial activity against Staphylococcus saprophyticus ATCC 49907 after 24 hrs; assay type: functional; details: ATCC 49907, 24 h
Staphylococcus aureus [12] = assay: Antibacterial activity against methicillin-resistant Staphylococcus aureus ATCC 33591 after 24 hrs; assay type: functional; details: ATCC 33591, 24 h
Staphylococcus aureus [13] = assay: Antibacterial activity against methicillin-resistant Staphylococcus aureus ATCC 700699 after 24 hrs; assay type: functional; details: ATCC 700699, 24 h
Enterococcus faecalis [14] = assay: Antibacterial activity against vancomycin-resistant Enterococcus faecalis isolate 1002 after 24 hrs; assay type: functional; details: isolate 1002, 24 h
[15] = tested on: Staphylococcus saprophyticus; assay: Antibacterial activity against Staphylococcus saprophyticus ATCC 49453 after 24 hrs; assay type: functional; details: ATCC 49453, 24 h
Staphylococcus aureus [16] = assay: Antibacterial activity against methicillin-resistant Staphylococcus aureus isolate 1003 after 24 hrs; assay type: functional; details: isolate 1003, 24 h
Enterococcus faecalis [17] = assay: Antibacterial activity against vancomycin-resistant Enterococcus faecalis ATCC 700802 after 24 hrs; assay type: functional; details: ATCC 700802, 24 h
Enterococcus faecalis [18] = assay: Antibacterial activity against vancomycin-resistant Enterococcus faecalis isolate 1001 after 24 hrs; assay type: functional; details: isolate 1001, 24 h
[19] = tested on: Staphylococcus saprophyticus; assay: Antibacterial activity against Staphylococcus saprophyticus ATCC 15305 after 24 hrs; assay type: functional; details: ATCC 15305, 24 h

| Structure (SMILES) | MIC (Bacillus cereus) [µg/mL] | MIC (Enterococcus faecalis [1]) [µg/mL] | MIC (Staphylococcus aureus [2]) [µg/mL] | MIC [3] [µg/mL] | MIC (Staphylococcus aureus [4]) [µg/mL] | MIC [5] [µg/mL] | MIC (Staphylococcus aureus [6]) [µg/mL] | MIC (Staphylococcus aureus [7]) [µg/mL] | MIC (Enterococcus faecalis [8]) [µg/mL] | MIC (Enterococcus faecalis [9]) [µg/mL] | MIC [10] [µg/mL] | MIC [11] [µg/mL] | MIC (Staphylococcus aureus [12]) [µg/mL] | MIC (Staphylococcus aureus [13]) [µg/mL] | MIC (Enterococcus faecalis [14]) [µg/mL] | MIC [15] [µg/mL] | MIC (Staphylococcus aureus [16]) [µg/mL] | MIC (Enterococcus faecalis [17]) [µg/mL] | MIC (Enterococcus faecalis [18]) [µg/mL] | MIC [19] [µg/mL] |
| --- | --- | --- | --- | --- | --- | --- | --- | --- | --- | --- | --- | --- | --- | --- | --- | --- | --- | --- | --- | --- |
| CC[C@@H](C)[C@@H](NC(=O)[C@@H](CCCNC(=N)N)NC(=O)[C@H](CCCNC(=N)N)NC(=O)[C@@H](NC(=O)[C@@H](Cc1ccccc1)NC)[C@@H](C)CC)C(=O)N[C@H](C(=O)N[C@@H](CO)C(=O)N[C@H]1C(=O)N[C@@H](CCCNC(=N)N)C(=O)N[C@@H](CC(C)C)C(=O)N[C@@H]([C@@H](C)CC)C(=O)O[C@H]1C)[C@@H](C)CC (H-[dNMeF]IR[dR][dI]IS[dT]RLI; ester 8-C) | 1 (≈ 0.723 µM) | 8 (≈ 5.78 µM) | 1 (≈ 0.723 µM) | < 0.0625 | 1 (≈ 0.723 µM) | < 0.0625 | 2 (≈ 1.45 µM) | 2 (≈ 1.45 µM) | 4 (≈ 2.89 µM) | 4 (≈ 2.89 µM) | < 0.0625 | < 0.0625 | 1 (≈ 0.723 µM) | 2 (≈ 1.45 µM) | 8 (≈ 5.78 µM) | < 0.0625 | 2 (≈ 1.45 µM) | 4 (≈ 2.89 µM) | 2 (≈ 1.45 µM) | 0.25 (≈ 0.181 µM) |
| CC[C@@H](C)[C@@H](NC(=O)[C@@H](CCC(N)=O)NC(=O)[C@H](CCCNC(=N)N)NC(=O)[C@@H](NC(=O)[C@@H](Cc1ccccc1)NC)[C@@H](C)CC)C(=O)N[C@H](C(=O)N[C@@H](CO)C(=O)N[C@H]1C(=O)N[C@@H](C)C(=O)N[C@@H](CC(C)C)C(=O)N[C@@H]([C@@H](C)CC)C(=O)O[C@H]1C)[C@@H](C)CC (H-[dNMeF]IR[dQ][dI]IS[dT]ALI; ester 8-C) | < 0.0625 | 0.125 (≈ 0.0984 µM) | 0.25 (≈ 0.197 µM) | < 0.0625 | 0.125 (≈ 0.0984 µM) | < 0.0625 | < 0.0625 | 0.0312 (≈ 0.0246 µM) | < 0.0625 | 0.5 (≈ 0.394 µM) | < 0.0625 | < 0.0625 | 0.125 (≈ 0.0984 µM) | 0.5 (≈ 0.394 µM) | 0.5 (≈ 0.394 µM) | < 0.0625 | < 0.0625 | 0.5 (≈ 0.394 µM) | 0.25 (≈ 0.197 µM) | < 0.0625 |
| CC[C@@H](C)[C@@H](NC(=O)[C@@H](CCC(N)=O)NC(=O)[C@H](CCCNC(=N)N)NC(=O)[C@@H](NC(=O)[C@@H](Cc1ccccc1)NC)[C@@H](C)CC)C(=O)N[C@H](C(=O)N[C@@H](CO)C(=O)N[C@H]1C(=O)N[C@@H](CCCNC(=N)N)C(=O)N[C@@H](CC(C)C)C(=O)N[C@@H]([C@@H](C)CC)C(=O)O[C@H]1C)[C@@H](C)CC (H-[dNMeF]IR[dQ][dI]IS[dT]RLI; ester 8-C) | 1 (≈ 0.738 µM) | 0.5 (≈ 0.369 µM) | 1 (≈ 0.738 µM) | < 0.0625 | 0.5 (≈ 0.369 µM) | < 0.0625 | 0.25 (≈ 0.184 µM) | 1 (≈ 0.738 µM) | 0.5 (≈ 0.369 µM) | 1 (≈ 0.738 µM) | < 0.0625 | < 0.0625 | 1 (≈ 0.738 µM) | 1 (≈ 0.738 µM) | 1 (≈ 0.738 µM) | < 0.0625 | 2 (≈ 1.48 µM) | 1 (≈ 0.738 µM) | 0.5 (≈ 0.369 µM) | < 0.0625 |
| CC[C@@H](C)[C@@H](NC(=O)[C@@H](CCC(N)=O)NC(=O)[C@H](CCCNC(=N)N)NC(=O)[C@@H](NC(=O)[C@@H](Cc1ccccc1)NC)[C@@H](C)CC)C(=O)N[C@H](C(=O)N[C@@H](CO)C(=O)N[C@H]1C(=O)N[C@@H](C)C(=O)N[C@@H]([C@@H](C)CC)C(=O)N[C@@H]([C@@H](C)CC)C(=O)O[C@H]1C)[C@@H](C)CC | 0.125 (≈ 0.0984 µM) | 1 (≈ 0.787 µM) | 0.5 (≈ 0.394 µM) | < 0.0625 | 0.125 (≈ 0.0984 µM) | < 0.0625 | 0.125 (≈ 0.0984 µM) | 0.25 (≈ 0.197 µM) | 1 (≈ 0.787 µM) | 1 (≈ 0.787 µM) | < 0.0625 | < 0.0625 | 0.25 (≈ 0.197 µM) | 1 (≈ 0.787 µM) | 1 (≈ 0.787 µM) | < 0.0625 | 0.125 (≈ 0.0984 µM) | 1 (≈ 0.787 µM) | 1 (≈ 0.787 µM) | < 0.0625 |
